Numbers after ± are expanded uncertainties.
Conditions: Liquid

SMILES: O=C(O)C(F)(F)C(F)(F)C(F)(F)C(F)(F)C(F)(F)C(F)(F)C(F)(F)F [pentadecafluorooctanoic acid]
- vapor or sublimation pressure (332.4 K): 0.128 ± 0.037 kPa
- vapor or sublimation pressure (335.52 K): 0.168 ± 0.037 kPa
- vapor or sublimation pressure (339.75 K): 0.231 ± 0.045 kPa
- vapor or sublimation pressure (345.75 K): 0.361 ± 0.061 kPa
- vapor or sublimation pressure (352.15 K): 0.581 ± 0.088 kPa
- vapor or sublimation pressure (359.75 K): 0.96 ± 0.14 kPa
- vapor or sublimation pressure (368.05 K): 1.602 ± 0.16 kPa
- vapor or sublimation pressure (377.09 K): 2.69 ± 0.19 kPa
- vapor or sublimation pressure (387.15 K): 4.591 ± 0.24 kPa
- vapor or sublimation pressure (397.55 K): 7.691 ± 0.32 kPa
- vapor or sublimation pressure (409.26 K): 13.07 ± 0.45 kPa
- vapor or sublimation pressure (421.75 K): 22.16 ± 0.67 kPa
- vapor or sublimation pressure (435.35 K): 37.25 ± 1.1 kPa
- vapor or sublimation pressure (450.95 K): 63.98 ± 1.7 kPa
- vapor or sublimation pressure (463.95 K): 96.5 ± 2.5 kPa

SMILES: O=C(O)C(F)(F)C(F)(F)C(F)(F)C(F)(F)C(F)(F)C(F)(F)C(F)(F)C(F)(F)C(F)(F)C(F)(F)C(F)(F)F [dodecanoic acid, tricosafluoro-]
- vapor or sublimation pressure (400.73 K): 0.856 ± 0.12 kPa
- vapor or sublimation pressure (413.72 K): 1.819 ± 0.17 kPa
- vapor or sublimation pressure (422.1 K): 2.854 ± 0.2 kPa
- vapor or sublimation pressure (422.75 K): 2.985 ± 0.2 kPa
- vapor or sublimation pressure (433.27 K): 4.848 ± 0.24 kPa
- vapor or sublimation pressure (445.63 K): 8.29 ± 0.33 kPa
- vapor or sublimation pressure (457.94 K): 13.81 ± 0.47 kPa
- vapor or sublimation pressure (470.59 K): 22.07 ± 0.67 kPa
- vapor or sublimation pressure (483.66 K): 34.48 ± 0.98 kPa
- vapor or sublimation pressure (498.85 K): 55.15 ± 1.5 kPa
- vapor or sublimation pressure (520.51 K): 99.96 ± 2.6 kPa

SMILES: O=C(O)C(F)(F)C(F)(F)C(F)(F)C(F)(F)C(F)(F)C(F)(F)C(F)(F)C(F)(F)F [perfluorononanoic acid]
- vapor or sublimation pressure (372.78 K): 1.12 ± 0.16 kPa
- vapor or sublimation pressure (382.69 K): 2.02 ± 0.17 kPa
- vapor or sublimation pressure (390.81 K): 3.12 ± 0.2 kPa
- vapor or sublimation pressure (401.7 K): 5.54 ± 0.26 kPa
- vapor or sublimation pressure (412.92 K): 9.33 ± 0.36 kPa
- vapor or sublimation pressure (423.86 K): 15.19 ± 0.5 kPa
- vapor or sublimation pressure (432.85 K): 22.77 ± 0.69 kPa
- vapor or sublimation pressure (446.11 K): 37.25 ± 1.1 kPa
- vapor or sublimation pressure (461.08 K): 62.07 ± 1.7 kPa
- vapor or sublimation pressure (476.13 K): 99.97 ± 2.6 kPa
- vapor or sublimation pressure (476.27 K): 99.97 ± 2.6 kPa

SMILES: O=C(O)C(F)(F)C(F)(F)C(F)(F)C(F)(F)C(F)(F)C(F)(F)C(F)(F)C(F)(F)C(F)(F)C(F)(F)F [perfluoroundecanoic acid]
- vapor or sublimation pressure (385.19 K): 0.616 ± 0.092 kPa
- vapor or sublimation pressure (393.78 K): 1.062 ± 0.15 kPa
- vapor or sublimation pressure (402.69 K): 1.752 ± 0.17 kPa
- vapor or sublimation pressure (412.29 K): 2.785 ± 0.19 kPa
- vapor or sublimation pressure (412.41 K): 2.789 ± 0.19 kPa
- vapor or sublimation pressure (422.37 K): 4.513 ± 0.24 kPa
- vapor or sublimation pressure (431.47 K): 6.925 ± 0.3 kPa
- vapor or sublimation pressure (445.17 K): 12.44 ± 0.43 kPa
- vapor or sublimation pressure (459.92 K): 20.7 ± 0.64 kPa
- vapor or sublimation pressure (473.83 K): 34.49 ± 0.98 kPa
- vapor or sublimation pressure (475.24 K): 34.48 ± 0.98 kPa
- vapor or sublimation pressure (491.44 K): 58.6 ± 1.6 kPa
- vapor or sublimation pressure (491.79 K): 58.6 ± 1.6 kPa
- vapor or sublimation pressure (509.83 K): 96.51 ± 2.5 kPa
- vapor or sublimation pressure (510.8 K): 99.97 ± 2.6 kPa

SMILES: O=C(O)C(F)(F)C(F)(F)C(F)(F)C(F)(F)C(F)(F)C(F)(F)C(F)(F)C(F)(F)C(F)(F)F [nonadecafluorodecanoic acid]
- vapor or sublimation pressure (402.71 K): 3.129 ± 0.2 kPa
- vapor or sublimation pressure (406.24 K): 3.749 ± 0.22 kPa
- vapor or sublimation pressure (414.08 K): 5.541 ± 0.26 kPa
- vapor or sublimation pressure (425.35 K): 9.331 ± 0.35 kPa
- vapor or sublimation pressure (436.83 K): 15.18 ± 0.5 kPa
- vapor or sublimation pressure (447.12 K): 22.77 ± 0.69 kPa
- vapor or sublimation pressure (460.65 K): 37.23 ± 1.1 kPa
- vapor or sublimation pressure (476.08 K): 62.05 ± 1.7 kPa
- vapor or sublimation pressure (492.03 K): 99.97 ± 2.6 kPa

From the NIST ThermoML archive (doi:10.1021/je050070r)
